# Reference: ChEMBL document CHEMBL4706647, “Development and optimization of halogenated vinyl sulfones as Nrf2 activators for the treatment of Parkinson's disease” (Eur J Med Chem, 2021)
# Biological target: T1, Nuclear factor erythroid 2-related factor 2 (Homo sapiens, UniProt Q16236)
# T1 sequence (Q16236 whole entry): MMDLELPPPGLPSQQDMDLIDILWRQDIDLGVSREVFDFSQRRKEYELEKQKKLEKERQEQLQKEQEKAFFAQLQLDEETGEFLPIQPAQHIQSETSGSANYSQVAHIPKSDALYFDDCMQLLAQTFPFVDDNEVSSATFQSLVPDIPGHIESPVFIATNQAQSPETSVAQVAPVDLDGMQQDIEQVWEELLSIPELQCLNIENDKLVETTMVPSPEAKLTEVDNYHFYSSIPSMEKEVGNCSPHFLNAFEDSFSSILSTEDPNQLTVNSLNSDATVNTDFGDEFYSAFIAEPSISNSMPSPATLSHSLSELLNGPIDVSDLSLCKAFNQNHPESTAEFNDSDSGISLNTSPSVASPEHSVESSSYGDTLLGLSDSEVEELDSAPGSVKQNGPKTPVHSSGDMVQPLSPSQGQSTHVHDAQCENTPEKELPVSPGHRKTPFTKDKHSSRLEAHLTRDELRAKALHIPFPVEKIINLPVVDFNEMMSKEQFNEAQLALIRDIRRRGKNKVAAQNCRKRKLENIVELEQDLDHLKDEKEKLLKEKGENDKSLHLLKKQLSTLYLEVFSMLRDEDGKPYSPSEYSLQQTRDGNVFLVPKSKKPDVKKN
# Test: Activation of Nrf2 (unknown origin) expressed in human U2OS cells co-expressing Keap1 assessed as increase in Nrf2 nuclear translocation incubated for 6 hrs under dark condition by pathhunter assay
# Format: cell-based
# Conditions: not given
row,SMILES,EC50
1,O=S(=O)(/C=C/c1cccc(Cl)n1)c1ccc(F)cc1,2790 nM
2,O=S(=O)(/C=C/c1ncccc1Cl)c1ccc(F)cc1,231 nM
3,O=S(=O)(/C=C/c1cccnc1Cl)c1ccc(F)cc1,339 nM
4,O=S(=O)(/C=C\c1ncccc1Cl)c1ccc(Cl)cc1,1750 nM
5,O=S(=O)(/C=C/c1cccc(Cl)n1)c1ccc(Cl)cc1,1460 nM
6,O=S(=O)(/C=C/c1ncccc1F)c1ccc(Cl)cc1,286 nM
7,O=S(=O)(/C=C/c1ncccc1Cl)c1ccc(Cl)cc1,65 nM
8,O=S(=O)(/C=C/c1ccc(Cl)cn1)c1ccc(F)cc1,4370 nM
9,O=S(=O)(/C=C/c1ccc(Cl)cn1)c1cccc(F)c1,2500 nM
10,O=S(=O)(/C=C/c1ccncc1)c1cccc(F)c1,950 nM
11,O=S(=O)(/C=C/c1ccc(Cl)cn1)c1cccc(Cl)c1,1510 nM
12,O=S(=O)(/C=C/c1cccnc1Cl)c1ccc(Cl)cc1,305 nM
13,O=S(=O)(/C=C\c1ncccc1F)c1cccc(Cl)c1,252 nM
14,O=S(=O)(/C=C/c1ccc(Cl)nc1)c1ccc(F)cc1,> 10000 nM
15,O=S(=O)(/C=C/c1cccnc1Cl)c1cccc(F)c1,328 nM
16,O=S(=O)(/C=C/c1ccc(Cl)cn1)c1ccc(Cl)cc1,3160 nM
17,O=S(=O)(/C=C\c1ccc(Cl)nc1)c1cccc(F)c1,965 nM
18,O=S(=O)(/C=C/c1ccc(Cl)nc1)c1ccc(Cl)cc1,> 10000 nM
19,O=S(=O)(/C=C/c1cccc(Cl)n1)c1cccc(Cl)c1,1070 nM
20,O=S(=O)(/C=C/c1ccccn1)c1ccc(F)cc1,3100 nM
21,O=S(=O)(/C=C/c1cccnc1Cl)c1cccc(Cl)c1,213 nM
22,O=S(=O)(/C=C/c1ccc(Cl)nc1)c1cccc(Cl)c1,2210 nM
23,O=S(=O)(/C=C/c1ncccc1F)c1ccc(F)cc1,542 nM
24,O=S(=O)(/C=C/c1ncccc1F)c1cccc(Cl)c1,198 nM
25,O=S(=O)(/C=C/c1ccc(Cl)nc1)c1cccc(F)c1,4870 nM
26,O=S(=O)(/C=C\c1ccc(Cl)nc1)c1cccc(Cl)c1,3390 nM
27,O=S(=O)(/C=C/c1ncccc1F)c1cccc(F)c1,474 nM
28,O=S(=O)(/C=C/c1ccccn1)c1cccc(F)c1,1680 nM

# The remaining lines, values ahead:
row,EC50,SMILES
1,1050 nM,O=S(=O)(/C=C/c1ccccn1)c1ccccc1F
2,2940 nM,O=S(=O)(/C=C/c1ccc(Cl)cn1)c1ccccc1Cl
3,6850 nM,O=S(=O)(/C=C/c1cccnc1)c1ccccc1F
4,384 nM,O=S(=O)(/C=C\c1cccnc1Cl)c1ccccc1Cl
5,583 nM,O=S(=O)(/C=C\c1ncccc1F)c1ccccc1Cl
6,192 nM,O=S(=O)(/C=C/c1cccnc1Cl)c1ccccc1Cl
7,482 nM,O=S(=O)(/C=C\c1ncccc1F)c1ccccc1F
8,1430 nM,O=S(=O)(/C=C/c1ccccn1)c1cccc(Cl)c1
9,1730 nM,O=S(=O)(/C=C/c1ccccn1)c1ccc(Cl)cc1
10,1040 nM,O=S(=O)(/C=C/c1ccc(Cl)cn1)c1ccccc1F
11,122 nM,O=S(=O)(/C=C/c1ncccc1F)c1ccccc1Cl
12,30 nM,O=S(=O)(/C=C/c1ncccc1Cl)c1ccccc1F
13,2850 nM,O=S(=O)(/C=C/c1cccnc1)c1ccccc1Cl
14,618 nM,O=S(=O)(/C=C/c1ccccn1)c1ccccc1Cl
15,217 nM,O=S(=O)(/C=C/c1cccnc1Cl)c1ccccc1F
16,781 nM,O=S(=O)(/C=C/c1ccncc1)c1ccccc1Cl
17,898 nM,O=S(=O)(/C=C/c1cccc(Cl)n1)c1ccccc1F
18,176 nM,O=S(=O)(/C=C/c1ncccc1F)c1ccccc1F
19,528 nM,O=S(=O)(/C=C/c1ccncc1)c1cccc(Cl)c1
20,46 nM,O=S(=O)(/C=C/c1ncccc1Cl)c1cccc(Cl)c1
21,2550 nM,O=S(=O)(/C=C/c1ccc(Cl)nc1)c1ccccc1F
22,1100 nM,O=S(=O)(/C=C\c1ncccc1Cl)c1ccccc1Cl
23,3390 nM,O=S(=O)(/C=C\c1cccnc1Cl)c1ccccc1F
24,760 nM,O=S(=O)(/C=C/c1ccncc1)c1ccccc1F
25,4820 nM,O=S(=O)(/C=C\c1cccnc1)c1cccc(F)c1
26,147 nM,O=S(=O)(/C=C\c1cccc(Cl)n1)c1ccccc1Cl
27,1630 nM,O=S(=O)(/C=C/c1ccc(Cl)nc1)c1ccccc1Cl
28,1030 nM,O=S(=O)(/C=C\c1ncccc1Cl)c1ccccc1F
29,3520 nM,O=S(=O)(/C=C/c1cccnc1)c1cccc(Cl)c1
30,290 nM,O=S(=O)(/C=C\c1ncccc1Cl)c1cccc(Cl)c1

# Biological target: Voltage-gated inwardly rectifying potassium channel KCNH2 (Homo sapiens, UniProt Q12809)
# Test: Inhibition of fluorescence tracer red binding to human ERG measured after 4 hrs by fluorescence polarization assay
# Conditions: not given
# Sequence of Voltage-gated inwardly rectifying potassium channel KCNH2 (Q12809 whole entry): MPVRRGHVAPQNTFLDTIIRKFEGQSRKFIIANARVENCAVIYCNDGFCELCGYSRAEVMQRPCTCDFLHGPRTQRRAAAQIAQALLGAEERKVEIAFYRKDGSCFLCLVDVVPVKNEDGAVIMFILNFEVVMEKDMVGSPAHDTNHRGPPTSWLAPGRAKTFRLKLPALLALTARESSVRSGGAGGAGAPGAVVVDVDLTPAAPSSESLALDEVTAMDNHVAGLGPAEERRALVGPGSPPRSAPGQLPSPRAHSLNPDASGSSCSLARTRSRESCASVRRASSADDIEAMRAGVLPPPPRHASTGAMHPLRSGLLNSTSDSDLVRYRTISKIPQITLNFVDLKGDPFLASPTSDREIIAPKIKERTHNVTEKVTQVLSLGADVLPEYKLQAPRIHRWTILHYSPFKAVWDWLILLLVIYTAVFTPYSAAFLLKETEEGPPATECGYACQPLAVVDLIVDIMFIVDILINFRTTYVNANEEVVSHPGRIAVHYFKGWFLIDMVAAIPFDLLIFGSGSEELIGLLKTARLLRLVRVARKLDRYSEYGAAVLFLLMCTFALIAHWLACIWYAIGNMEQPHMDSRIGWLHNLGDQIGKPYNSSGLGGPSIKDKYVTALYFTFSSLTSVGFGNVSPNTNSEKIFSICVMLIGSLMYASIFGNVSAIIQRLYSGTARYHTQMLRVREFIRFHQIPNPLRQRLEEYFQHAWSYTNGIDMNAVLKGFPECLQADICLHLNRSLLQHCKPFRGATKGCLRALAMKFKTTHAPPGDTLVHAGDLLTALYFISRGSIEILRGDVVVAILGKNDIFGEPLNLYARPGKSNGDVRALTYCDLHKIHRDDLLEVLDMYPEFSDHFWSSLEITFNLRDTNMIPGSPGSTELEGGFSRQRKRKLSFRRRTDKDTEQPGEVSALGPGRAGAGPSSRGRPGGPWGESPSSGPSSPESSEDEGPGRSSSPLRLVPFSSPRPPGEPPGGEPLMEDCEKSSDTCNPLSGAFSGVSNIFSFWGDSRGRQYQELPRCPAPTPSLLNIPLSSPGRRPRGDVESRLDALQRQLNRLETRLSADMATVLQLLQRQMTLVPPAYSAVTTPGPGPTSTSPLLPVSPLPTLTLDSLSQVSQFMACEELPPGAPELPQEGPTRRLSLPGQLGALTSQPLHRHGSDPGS
row,SMILES,IC50
1,COc1ccccc1S(=O)(=O)/C=C/c1ccccc1Cl,12 µM

# Tested on: not listed separately
# Test: Stability in human plasma assessed as parent compound remaining after 30 mins by LC-MS/MS analysis
# Format: ADME, cell-free
# Conditions: read-out: Stabilty
row,SMILES,remaining at 0.5 h
1,COc1ccccc1S(=O)(=O)/C=C/c1ccccc1Cl,86.1%

# Biological target: CYP2C9 (Homo sapiens, UniProt P11712)
# Test: Inhibition of CYP2C9 (unknown origin) assessed as residual activity
# Format: ADME
# Conditions: not given
# Sequence of CYP2C9 (P11712 whole entry): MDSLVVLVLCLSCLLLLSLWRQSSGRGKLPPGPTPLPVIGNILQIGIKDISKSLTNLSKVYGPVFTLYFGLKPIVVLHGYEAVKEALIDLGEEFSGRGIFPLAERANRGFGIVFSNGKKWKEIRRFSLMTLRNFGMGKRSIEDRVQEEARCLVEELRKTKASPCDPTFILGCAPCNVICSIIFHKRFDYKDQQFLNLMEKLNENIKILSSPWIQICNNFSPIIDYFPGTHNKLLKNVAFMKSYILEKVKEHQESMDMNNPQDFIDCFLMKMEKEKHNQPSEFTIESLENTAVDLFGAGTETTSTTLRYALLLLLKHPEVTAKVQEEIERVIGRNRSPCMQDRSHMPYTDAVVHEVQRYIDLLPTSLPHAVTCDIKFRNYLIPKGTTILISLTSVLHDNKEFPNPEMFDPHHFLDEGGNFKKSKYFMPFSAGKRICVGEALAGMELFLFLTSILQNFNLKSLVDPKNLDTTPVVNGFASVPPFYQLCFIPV
row,SMILES,activity
1,COc1ccccc1S(=O)(=O)/C=C/c1ccccc1Cl,100%

# Tested on: not listed separately
# Test: Cytotoxicity against mouse BV-2 cells assessed cell viability at 10 uM measured after 6 hrs by Ez-cytox reagent based assay relative to control
# Conditions: read-out: Activity
row,SMILES,"viability at 6 h, 10 µM"
1,COc1ccccc1S(=O)(=O)/C=C/c1ccccc1Cl,90.1%
